Laboratory results as given in patent US11072626B2, “Small molecule inhibitors of Galectin-3” (BRISTOL-MYERS SQUIBB COMPANY, priority 2017, dated 2021).

Target: His-tagged recombinant human Gal-3 (hGal-3) (Homo sapiens (Human), UniProt P17931)
Experiment: Gal-3 HTRF assay (hGal-3 / B-ASF)
Assay type: binding
Conditions: 15 nM hGal-3, 15 nM B-ASF, table after Example 4, read-out: hGal3 IC50
Method: ASSAY BUFFER Composition: 25 mM HEPES, 100 mM NaCl, 0.005% Tween 20, 0.05% BSA prepared in sterile water (all reagents from Sigma)
Positive Control: 100% DMSO (1 μl)+His-tagged hGal-3 (20 μL)+B-ASF (20 μl)+Anti-His Terbium Antibody (5 μl)+Strep d2 Antibody (5 μl).
Negative Control: 100% DMSO (1 μl)+His-tagged hGal-3 (20μL)+Anti His Terbium Antibody (5 μl)+Strep d2 Aantibody (5 μl).
PROTOCOL: The Gal-3 assays were performed in 384 white Opti plates in three replicates at room temperature with gentle shaking at 250-300 rpm From the original stocks, […] working stock concentrations of His-tagged recombinant human Gal-3 (hGal-3) and that of B-ASF were prepared. From the working stock, 20 μl of hGal-3 (15 nM) and 20 μl B-ASF (15 nM) were added to the plates. In Negative Control, only hGal-3 was added. A concentration range of 50× working stocks were prepared for the compounds in 100% DMSO. Aliquots of 1 uL of the compounds were added to the wells and pre-incubated with 20 μl hGal-3 per well for 30 minutes Then 20 μl B-ASF were added and incubated for another 1 hour. To detect the signal, 5 μ(final conc. of 1.0 nM) terbium labelled Anti-His antibody was added and incubated for 30 min followed by adding 5 μ(final conc. of 20 nM) Streptavidin d2 and incubation for another 1 hour. The assay signal was detected using HTRF screen protocol (Excitation wavelength=340 nm, emission wavelength=615 nm/665 nm) on Envision 2104 Multilabel Reader. Data analysed using Toolset and Curve Master. Results are reported in the experimental section (IC50 in μM).

Sequence of His-tagged recombinant human Gal-3 (hGal-3) (P17931 whole entry): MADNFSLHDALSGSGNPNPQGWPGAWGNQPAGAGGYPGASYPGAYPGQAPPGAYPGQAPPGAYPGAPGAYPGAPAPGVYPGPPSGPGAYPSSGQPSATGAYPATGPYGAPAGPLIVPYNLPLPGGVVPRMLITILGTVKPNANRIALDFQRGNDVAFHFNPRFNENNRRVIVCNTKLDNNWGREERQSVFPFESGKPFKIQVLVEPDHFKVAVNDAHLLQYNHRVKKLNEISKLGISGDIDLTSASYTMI

Row | Compound | IC50
1 | OC[C@H]1O[C@H](Sc2ccc(Cl)c(Cl)c2)[C@H](OCCN2CCOCC2)[C@@H](n2cc(-c3cc(F)c(F)c(F)c3)nn2)[C@H]1O [compound 5, (2R,3R,4S,5R,6R)-6-((3,4-dichlorophenyl)thio)-2-(hydroxymethyl)-5-(2-morpholinoethoxy)-4-(4-(3,4,5-trifluorophenyl)-1H-1,2,3-triazol-1-yl)tetrahydro-2H-pyran-3-ol] | 195 nM

Same assay, conditions: 15 nM hGal-3, 15 nM B-ASF, table after Example 20, read-out: hGal3 IC50

Row | Compound | IC50
2 | O=C(CO[C@@H]1[C@@H](n2cc(-c3cc(F)c(F)c(F)c3)nn2)[C@@H](O)[C@@H](CO)O[C@@H]1Sc1ccc(Cl)c(Cl)c1)N1CCS(=O)(=O)CC1 [Example 22, 2-(((2R,3R,4S,5R,6R)-2-((3,4-dichlorophenyl)thio)-5-hydroxy-6-(hydroxymethyl)-4-(4-(3,4,5-trifluorophenyl)-1H-1,2,3-triazol-1-yl)tetrahydro-2H-pyran-3-yl)oxy)-1-(1,1-dioxidothiomorpholino)ethan-1-one] | 43 nM
3 | O=C(CO[C@@H]1[C@@H](n2cc(-c3cc(F)c(F)c(F)c3)nn2)[C@@H](O)[C@@H](CO)O[C@@H]1Sc1ccc(Cl)c(Cl)c1)N1CCC[C@@H](O)C1 [Example 23] | 60 nM
4 | COCCN(C)C(=O)CO[C@@H]1[C@@H](n2cc(-c3cc(F)c(F)c(F)c3)nn2)[C@@H](O)[C@@H](CO)O[C@@H]1Sc1ccc(Cl)c(Cl)c1 [Example 32] | 700 nM
5 | O=C(CO[C@@H]1[C@@H](n2cc(-c3cc(F)c(F)c(F)c3)nn2)[C@@H](O)[C@@H](CO)O[C@@H]1Sc1ccc(Cl)c(Cl)c1)N1CCC[C@H](O)C1 [Example 33, 2-(((2R,3R,4S,5R,6R)-2-((3,4-dichlorophenyl)thio)-5-hydroxy-6-(hydroxymethyl)-4-(4-(3,4,5-trifluorophenyl)-1H-1,2,3-triazol-1-yl)tetrahydro-2H-pyran-3-yl)oxy)-1-((S)-3-hydroxypiperidin-1-yl)ethan-1-one] | 60 nM
6 | O=C(CO[C@@H]1[C@@H](n2cc(-c3cc(F)c(F)c(F)c3)nn2)[C@@H](O)[C@@H](CO)O[C@@H]1Sc1ccc(Cl)c(Cl)c1)N1CC(O)C1 [Example 31] | 90 nM

Same assay, conditions: 15 nM hGal-3, 15 nM B-ASF, table after Example 46, read-out: hGal3 IC50

Row | Compound | IC50
7 | COc1ccc(-c2cn([C@H]3[C@@H](O)[C@@H](CO)O[C@H](Sc4ccc(Cl)c(Cl)c4)[C@@H]3OCC(=O)O)nn2)cc1 [Example 47] | 1530 nM
8 | O=C(O)CO[C@@H]1[C@@H](n2cc(-c3ccccc3F)nn2)[C@@H](O)[C@@H](CO)O[C@@H]1Sc1ccc(Cl)c(Cl)c1 [Example 51] | 1610 nM
9 | COc1cccc(-c2cn([C@H]3[C@@H](O)[C@@H](CO)O[C@H](Sc4ccc(Cl)c(Cl)c4)[C@@H]3OCC(=O)O)nn2)c1 [Example 48] | 740 nM
10 | Cc1ccccc1-c1cn([C@H]2[C@@H](O)[C@@H](CO)O[C@H](Sc3ccc(Cl)c(Cl)c3)[C@@H]2OCC(=O)O)nn1 [Example 53] | 1750 nM
11 | Cc1cc(-c2cn([C@H]3[C@@H](O)[C@@H](CO)O[C@H](Sc4ccc(Cl)c(Cl)c4)[C@@H]3OCC(=O)O)nn2)ccc1F [Example 54] | 230 nM
12 | O=C(O)CO[C@@H]1[C@@H](n2cc(-c3ccc(F)c(F)c3)nn2)[C@@H](O)[C@@H](CO)O[C@@H]1Sc1ccc(Cl)c(Cl)c1 [Example 55] | 70 nM

Same assay, conditions: 15 nM hGal-3, 15 nM B-ASF, three replicates, room temperature, read-out: hGal3 IC50

Row | Compound | IC50
13 | CCOC(=O)CO[C@@H]1[C@@H](n2cc(-c3cc(F)c(F)c(F)c3)nn2)[C@@H](O)[C@@H](CO)O[C@@H]1[S@@+]([O-])c1ccc(Cl)c(Cl)c1 [Example 16, ethyl 2-(((2R,3R,4S,5R,6R)-2-((S)-(3,4-dichlorophenyl)sulfinyl)-5-hydroxy-6-(hydroxymethyl)-4-(4-(3,4,5-trifluorophenyl)-1H-1,2,3-triazol-1-yl)tetrahydro-2H-pyran-3-yl)oxy)acetate] | 25 nM
14 | O=C(O)CO[C@@H]1[C@@H](n2cc(-c3cc(F)c(F)c(F)c3)nn2)[C@@H](O)[C@@H](CO)O[C@@H]1S(=O)(=O)c1ccc(Cl)c(Cl)c1 [Example 19, 2-(((2R,3R,4S,5R,6R)-2-((3,4-dichlorophenyl)sulfonyl)-5-hydroxy-6-(hydroxymethyl)-4-(4-(3,4,5-trifluorophenyl)-1H-1,2,3-triazol-1-yl)tetrahydro-2H-pyran-3-yl)oxy)acetic acid] | 60 nM
15 | CCOC(=O)CO[C@@H]1[C@@H](n2cc(-c3cc(F)c(F)c(F)c3)nn2)[C@@H](O)[C@@H](CO)O[C@@H]1S(=O)(=O)c1ccc(Cl)c(Cl)c1 [Example 17, ethyl 2-(((2R,3R,4S,5R,6R)-2-((3,4-dichlorophenyl)sulfonyl)-5-hydroxy-6-(hydroxymethyl)-4-(4-(3,4,5-trifluorophenyl)-1H-1,2,3-triazol-1-yl)tetrahydro-2H-pyran-3-yl)oxy)acetate] | 190 nM
16 | CC(O[C@@H]1[C@@H](n2cc(-c3cc(F)c(F)c(F)c3)nn2)[C@@H](O)[C@@H](CO)O[C@@H]1Sc1ccc(Cl)c(Cl)c1)C(=O)O (single isomer, unassigned) [Example 38 (isomer-2)] | 40 nM
17 | COCCO[C@@H]1[C@@H](n2cc(-c3cc(F)c(F)c(F)c3)nn2)[C@@H](O)[C@@H](CO)O[C@@H]1[S@+]([O-])c1ccc(Cl)c(Cl)c1 [Example 11, (2R,3R,4S,5R,6R)-6-((R)-(3,4-dichlorophenyl)sulfinyl)-2-(hydroxymethyl)-5-(2-methoxyethoxy)-4-(4-(3,4,5-trifluorophenyl)-1H-1,2,3-triazol-1-yl)tetrahydro-2H-pyran-3-ol] | 56 nM
18 | CO[C@@H]1[C@@H](n2cc(C(=O)O)nn2)[C@@H](O)[C@@H](CO)O[C@@H]1Sc1ccc(Cl)c(Cl)c1 [Example 42, 1-((2R,3R,4S,5R,6R)-2-((3,4-dichlorophenyl)thio)-5-hydroxy-6-(hydroxymethyl)-3-methoxytetrahydro-2H-pyran-4-yl)-1H-1,2,3-triazole-4-carboxylic acid] | 5000 nM
19 | CO[C@@H]1[C@@H](n2cc(-c3cc(F)c(F)c(F)c3)nn2)[C@@H](O)[C@@H](CO)O[C@@H]1S(=O)(=O)c1ccc(Cl)c(Cl)c1 [Example 3, (2R,3R,4S,5R,6R)-6-((3,4-dichlorophenyl)sulfonyl)-2-(hydroxymethyl)-5-methoxy-4-(4-(3,4,5-trifluorophenyl)-1H-1,2,3-triazol-1-yl)tetrahydro-2H-pyran-3-ol] | 112 nM
20 | CC(O[C@@H]1[C@@H](n2cc(-c3cc(F)c(F)c(F)c3)nn2)[C@@H](O)[C@@H](CO)O[C@@H]1Sc1ccc(Cl)c(Cl)c1)C(=O)O (single isomer, unassigned) [Example 38 (isomer-1)] | 150 nM
21 | COCCO[C@@H]1[C@@H](n2cc(-c3cc(F)c(F)c(F)c3)nn2)[C@@H](O)[C@@H](CO)O[C@@H]1S(=O)(=O)c1ccc(Cl)c(Cl)c1 [Example 12, (2R,3R,4S,5R,6R)-6-((3,4-dichlorophenyl)sulfonyl)-2-(hydroxymethyl)-5-(2-methoxyethoxy)-4-(4-(3,4,5-trifluorophenyl)-1H-1,2,3-triazol-1-yl)tetrahydro-2H-pyran-3-ol] | 130 nM
22 | O=C(CO[C@@H]1[C@@H](n2cc(-c3cc(F)c(F)c(F)c3)nn2)[C@@H](O)[C@@H](CO)O[C@@H]1[S@+]([O-])c1ccc(Cl)c(Cl)c1)N1CCS(=O)(=O)CC1 [Example 35, 2-(((2R,3R,4S,5R,6R)-2-((R)-(3,4-dichlorophenyl)sulfinyl)-5-hydroxy-6-(hydroxymethyl)-4-(4-(3,4,5-trifluorophenyl)-1H-1,2,3-triazol-1-yl)tetrahydro-2H-pyran-3-yl)oxy)-1-(1,1-dioxidothiomorpholino)ethan-1-one] | 50 nM
